Laboratory results: article PMC3115942 (PLoS ONE, 2011)

Key:
[1] = test system: Hh pathway in Shh-L2 cells; assay: Hh reporter assay in Shh-L2 cells; assay type: cell-based, mouse
Procedure: Shh-L2 cells were used as a Hh reporter cell line as described previously. Hh signaling was induced by Shh conditioned medium, 200 nM SAG (AH-Diagnostics) and ActOXS (a combination of 5 µM Hydroxycholesterol 20-alfa and 5 µM Hydroxycholesterol 22S (Sigma-Aldrich)). For Shh conditioned medium, Shh-PANC-1 cells were grown to confluence and switched to fresh medium. Shh conditioned medium was harvested after 48 hours, and was diluted to 50% in fresh DMEM before use. The clonal Shh-PANC-1 cell line was generated by stably transducing PANC-1 cells with virus containing medium from HEK293T cells that were transfected using a Virapower Lentiviral expression kit (Invitrogen). The vector was produced by removing GFP from a pLenti 6.2-vector, and inserting the mouse Shh cDNA sequence.
The calculations were performed with an online calculator using the formula: a exp (−bx) + c at the website; http://www.changbioscience.com/stat/ec50.html

AMPK(r) = assay: Millipore kinaseprofiler diversity array; assay type: biochemical, rat; conditions: 10 µM MS-0022
Procedure: Table 4 Kinase activity in presence of 10 µM MS-0022 in a kinaseprofiler diversity array. | column: Activity %

[2] = Liver transaminases (AST/ALT) in xenografted mice; assay type: in vivo, mouse; conditions: 50 mg/kg, 30 days injection scheme (5 day injection, 2 day pause), PANC-1 xenograft mice
Procedure: For PANC-1 xenografts, 4–6 week old CB17/SCID mice were injected with 5×10^6 PANC-1 (n = 6 per group) cells in 200 µl PBS subcutaneously on day 1. IP treatment with 50 mg/kg MS-0022 began when median tumor size reached 25 mm^2 (day 27). MS-0022 was pulverized using a pestle, and was mixed into a stable suspension in water containing 1% Tween 80 (Sigma-Aldrich). Mice were treated with MS-0022 or solvent for a period of 30 days after initiation in a 5 day injection 2 day pause scheme, and tumor size was measured throughout using calipers (mm^2). After 30 days the mice were sacrificed and tumors dissected and weighed. The PANC-1 xenograft endpoint was taken two days after the last compound treatment.
Blood was collected from the hepatic vein of freshly sacrificed animals into heparinized capillary blood collection tubes (Sarstedt), which were immediately centrifuged and the serum was collected. AST and ALT were run on non-hemolyzed samples using AST and ALT kits (Randox) following the manufacturer^'s instructions.

Cc1cccn2cc(-c3ccc(NC(=O)c4ccccc4Br)cc3)nc12 [MS-0022, 2-bromo-N-(4-(8-methylimidazo[1,2-a]pyridin-2-yl)phenyl)benzamide]
Hh pathway induction in Shh, SAG and ActOXS induced Shh-L2 cells ([1]; 5 µM, 48 hours, Shh, 200 nM SAG, ActOxs (5 µM+5 µM)): blocked Hh pathway induction | IC50 ([1]; Mus musculus, pathway inhibition in Shh induced Shh-L2 cells, 48 hours treatment): 100 nM | Activity % (AMPK(r)): 98% | AST/ALT levels [2]: greater than 1
